Measurements as given in PubChem BioAssay (NCI).
“And” between values parts separate entries of the source, which are not always exact repeats. Equal values may be shown once.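 Method: 48-hour compound exposure of cells in 96-well plates, five concentrations, linear interpolation of endpoints. GI50 is the concentration that inhibits growth by half. The concentration for full growth arrest is given as TGI.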

Columns and labels:
Assay in all cases: NCI-60 cell line screen, 48 h
[1] = tested on: UACC-62 melanoma
[2] = tested on: TK-10 renal
[3] = tested on: SF-295 CNS
[4] = tested on: PC-3 prostate
[5] = tested on: HT29 colon
[6] = tested on: MDA-MB-435
[7] = tested on: KM12 colon
[8] = tested on: MDA-MB-231 breast
[9] = tested on: HS 578T breast
[10] = tested on: SW-620 colon

SMILES	TGI [1]	GI50 [2]	TGI [2]	GI50 [3]	TGI [3]	GI50 [4]	GI50 [5]	TGI [5]	GI50 [6]	TGI [6]	GI50 [7]	TGI [7]	GI50 [8]	TGI [8]	GI50 [9]	TGI [9]	GI50 [10]	TGI [10]	TGI [4]	GI50 [1]
COc1ccc(S(=O)(=O)N2CCN(C(=O)c3ccc(-c4ccccc4)cc3)CC2C(=O)NO)cc1 (stereo not drawn)	12.5 µM and > 100 µM	1.83 µM and 12.1 µM	7.33 µM and 58.5 µM	3.85 µM and 25.7 µM	12.5 µM and > 100 µM	2.01 µM and 17.9 µM	0.889 µM	12.5 µM	–	–	–	–	–	–	–	–	–	–	–	–
OCc1ccc(N2CCc3cccc(F)c3C2)cc1Cl	–	–	–	0.246 µM	18.1 µM	16 µM	0.0334 µM	35.5 µM	19.5 µM	51.8 µM	15.7 µM	48.6 µM	13.4 µM	43.5 µM	21.9 µM	77.8 µM	< 0.0209 µM	> 79.7 µM	47.9 µM	–
CCC(=O)c1c(NOC2OCC(OC(C)=O)C(OC(C)=O)C2OC(C)=O)nc(OC)n(C)c1=O (stereo not drawn)	> 100 µM	–	> 100 µM	–	> 100 µM	–	–	> 100 µM	–	–	–	> 100 µM	–	–	–	–	–	> 100 µM	–	–
Cc1nn[n-]n1.N.N.N.N.N.[Cl-].[Co+3]	> 100 µM	> 100 µM	> 100 µM	> 100 µM	> 100 µM	–	> 100 µM	> 100 µM	–	–	> 100 µM	> 100 µM	–	–	–	–	> 100 µM	> 100 µM	–	> 100 µM
C#Cc1cccc(N2C(=O)c3c(c(-c4ccccc4)c(-c4ccc(Cc5ccc(-c6c(-c7ccccc7)c7c(c(-c8ccccc8)c6-c6ccccc6)C(=O)N(c6cccc(C#C)c6)C7=O)cc5)cc4)c(-c4ccccc4)c3-c3ccccc3)C2=O)c1	> 100 µM	–	53.3 µM	–	> 100 µM	–	–	> 100 µM	–	–	–	> 100 µM	–	–	–	–	–	> 100 µM	–	–
O=C(O)c1ccc(CI)cc1	26.4 µM	–	–	–	21.6 µM	–	–	37.9 µM	–	54.9 µM	–	–	–	37.6 µM	–	> 100 µM	–	33.7 µM	30.3 µM	–
COc1ccc(N=NC(C(=O)c2ccccc2)C(=O)c2ccccc2)cc1	56.1 µM	–	> 100 µM	–	> 100 µM	–	–	74 µM	–	–	–	> 100 µM	–	–	–	–	–	> 100 µM	–	–
O=c1/c(=C/c2ccccc2[N+](=O)[O-])sc2nc3ccccc3n12	> 100 µM	–	> 46.4 µM	–	41.4 µM	–	–	> 46.4 µM	–	–	–	> 46.4 µM	–	–	–	–	–	55.6 µM	–	–
O=C(CCC(=O)Nc1ccc(Cl)c(Cl)c1)CC(=O)c1ccc(Br)cc1	> 100 µM	–	> 100 µM	–	–	–	–	> 100 µM	–	–	–	> 100 µM	–	–	–	–	–	> 100 µM	–	–
CCc1ccc(NC(=O)NC(=O)c2ccccc2[N+](=O)[O-])cc1Oc1ncc(Cl)cn1	> 100 µM	–	> 100 µM	–	–	–	–	0.854 µM	–	0.0332 µM	–	0.728 µM	–	52.3 µM	–	–	–	> 100 µM	> 100 µM	–
COc1ccc(NC(=O)/C(=C/c2ccccc2)C(C)=O)cc1	22.3 µM	–	37.4 µM	–	28.6 µM	–	–	28.5 µM	–	–	–	27.5 µM	–	–	–	–	–	35.1 µM	–	–
CCOC(=O)C1=C(Nc2ccc(Cl)cc2Cl)OCC1=O	> 100 µM	–	> 100 µM	–	> 100 µM	–	–	> 100 µM	–	–	–	> 100 µM	–	–	–	–	–	> 100 µM	–	–
CC1=C[C@H]2c3c([nH]c4ccccc34)C(c3c[nH]c4ccccc34)[C@H]2CC1 (stereo partly drawn)	23.1 µM	–	28.5 µM	–	–	–	–	11.5 µM	–	–	–	–	–	–	–	–	–	24.1 µM	–	–
CC1=CC(=O)CC2(C)CC[C@@H]3C[C@]12OC3(C)C (stereo partly drawn)	> 100 µM	–	> 100 µM	–	> 100 µM	–	–	> 100 µM	–	–	–	> 100 µM	–	–	–	–	–	> 100 µM	–	–
CC1/C=C/[C@@]2(C)CCC(C(C)(C)O)C2C(O)C[C@](C)(O)/C=C/C1 (stereo partly drawn)	> 100 µM	–	> 100 µM	–	> 100 µM	–	–	> 100 µM	–	–	–	> 100 µM	–	–	–	–	–	> 100 µM	–	–
COc1cc(C2SCCCCCCCCCCSC(c3ccc(O)c(OC)c3)SCCCCCCCCCCS2)ccc1O (stereo not drawn)	> 100 µM	–	> 100 µM	–	> 100 µM	–	–	> 100 µM	–	> 100 µM	–	> 100 µM	–	> 100 µM	–	–	–	> 100 µM	> 100 µM	–
CCC1CC2C(=O)N(c3ccccc3)C(=O)C2c2[nH]c3ccccc3c21 (stereo not drawn)	> 100 µM	–	68.3 µM	–	29.8 µM	–	–	> 100 µM	–	–	–	> 100 µM	–	–	–	–	–	> 100 µM	–	–
COC(=O)/C=C(C)/C=C/C1OC(C)OCC1O (stereo not drawn)	> 100 µM	–	> 100 µM	–	> 100 µM	–	–	> 100 µM	–	–	–	> 100 µM	–	–	–	–	–	> 100 µM	–	–
C=C(CC(NC(=O)c1ccc(C(CC)Cc2cnc3nc(N)nc(N)c3n2)cc1)C(=O)O)C(=O)O (stereo not drawn)	> 100 µM	–	> 100 µM	–	–	–	–	> 100 µM	–	–	–	–	–	–	–	–	–	–	–	–
